Source: publication PMC8929047, “Synthetic Oligopeptides Mimicking γ-Core Regions of Cysteine-Rich Peptides of Solanum lycopersicum Possess Antimicrobial Activity against Human and Plant Pathogens” (Current Issues in Molecular Biology, 2021)
Peptide text beside a SMILES is read from it.

Legend:
[1] = tested on: Fusarium culmorum VKM F-2303; test: Spore germination and fungal growth inhibition (absorbance); format: cell-based; conditions: for IC50: Fusarium culmorum, 38 h incubation, absorbance 595 nm, max tested 150 μM, mean ± SD, three replicates; for Inhibition of F. culmorum growth: 38 h
Method: (§1) To study the effect of peptides on spore germination and growth of plant pathogenic fungi, fungal strains from the VKM collection were used: Fusarium culmorum VKM F-2303, F. oxysporum VKM F-137, F. solani VKM F-142, F. verticillioides VKM F-670, Bipolaris sorokiniana VKM F-4006, and Botrytis cinerea VKM F-4549. The fungi were grown on potato dextrose agar at 25 °C for 7–8 days, or for B. sorokiniana and B. cinerea, for 10–12 days. Spores were washed off from the surface of the mycelia with sterile distilled water and filtered through a sterile filter. The filtrate was centrifuged at 6000 rpm for 15 min. The precipitate was washed three times with sterile distilled water, transferred to Eppendorf tubes, and centrifuged at 10,000 rpm for 2 min. 1 mL of sterile aqueous 20% glycerol solution was added to the spores, and the tubes with spores were stored in a freezer at −20 °C.
(§2) Similar to antimicrobial assays with yeasts and bacteria, the effect of peptides on spore germination and fungal growth was studied by measuring the absorbance of the spore suspension in the presence of the peptide in microtiter plates. The wells of a plate were filled with 90 µL of spore suspension in half-strength potato dextrose broth at a concentration of 2000–3000 spores in 100 µL and 10 µL of aqueous solutions of peptides at final concentrations of 10–300 µM. The concentration of spores in the suspension was determined in the Goryaev chamber. The absorbance was recorded at 595 nm on a FilterMax F5 Multi-Mode Microplate Reader (Molecular Devices, San Jose, CA, USA) after 38 h of incubation, for B. sorokiniana and B. cinerea, after 14, 19, 24, 38, 43, 62 h.
(§3) Antimicrobial activity was expressed in IC50 values, which denote the concentration required for 50% inhibition of the pathogen growth; this was determined from a graph showing the dependence of antimicrobial activity on peptide concentration.
(§4) For each pathogen, experiments on the evaluation of antimicrobial activity of the synthetic peptides were performed with three replicates per treatment. Mean values, standard deviations (SD), and the significance of differences (p ≤ 0.05) of the means between treatments and controls (t-test for independent variables) were determined using STATISTICA v. 6.1 software (StatSoft Inc., Tulsa, OK, USA).

F. oxysporum VKM F-137 = format: cell-based; conditions: Fusarium oxysporum; 38 h incubation, absorbance 595 nm; max tested 150 μM; mean ± SD, three replicates
Method: as §1, §2, §3, §4

[2] = tested on: F. verticillioides VKM F-670; format: cell-based, Fusarium verticillioides; conditions: for IC50: Fusarium verticillioides, 38 h incubation, absorbance 595 nm, max tested 180 μM, mean ± SD, three replicates
Method: as §1
as §2, with “h. […]” for “h.”
as §4, with “6.1 software (StatSoft Inc., Tulsa, OK, USA).” left out

[3] = tested on: Cryptococcus neoformans VKM Y-2755; conditions: for IC50: Cryptococcus neoformans, 24 h incubation, 30 °C, absorbance 594 nm, max tested 100 μM, mean ± SD, three replicates; for Inhibition of C. neoformans growth: peptide 300 μM, 24 h, relative to control
Method: (§5) The antimicrobial activity of synthetic peptides was tested against the yeasts Cryptococcus neoformans VKM Y-2755 and Candida albicans VKM Y-2994, as well as against the bacteria Pectobacterium carotovorum subsp. carotovorum VKM B-1247, Pseudomonas savastanoi pv. savastanoi VKM B-1546 and Clavibacter michiganensis subsp. michiganensis VKM Ac-1403. All cultures were obtained from the All-Russian Collection of Microorganisms (VKM). Yeasts were grown on YPD-P medium containing (g/L): glucose–10, peptone–5 and yeast extract–4. Bacterial cultures were grown on medium containing (g/L): yeast extract–1, soya extract–30, aminopeptides (a solution of low-molecular weight peptides and all essential amino acids obtained from the blood of cattle by enzymatic hydrolysis)–60, tryptone–5 and pH 7.2. The microbial cultures were grown on a shaker at 30 °C for 24 h. The optical density of the cultures was measured on a UNICO 1201 (Unico, Dayton, NJ, USA) spectrophotometer at 594 nm. Yeast cultures were diluted 1:10 with water before analysis. […] The antibiotic activity of peptides against yeasts and bacteria was assayed in immunoassay microtiter plates. 10 µL of the tested peptide solution (final concentrations of 10–300 µM) in water, 80 µL of the medium and 10 µL of the microbial suspension were mixed in a well of the microtiter plate and incubated at 30 °C for 24 h; after that, the absorbance of the suspension was measured on an Efos 9305 spectrophotometer (Sapphire, Moscow, Russia) at 594 nm.
as §3
as §4, with “STATISTICA” left out

[4] = tested on: Clavibacter michiganensis subsp. michiganensis VKM Ac-1403; format: cell-based; conditions: for IC50: Clavibacter michiganensis, 24 h incubation, 30 °C, absorbance 594 nm, max tested 100 μM, mean ± SD, three replicates
Method: as §5, §3, §4

F. solani VKM F-142 = format: cell-based, Fusarium solani; conditions: for IC50: Fusarium solani, 38 h incubation, absorbance 595 nm, max tested 150 μM, mean ± SD, three replicates
Method: as §1
as §2, with “h. […]” for “h.”
as §4, with “6.1 software (StatSoft Inc., Tulsa, OK, USA).” left out

[5] = tested on: Pectobacterium carotovorum subsp. carotovorum VKM B-1247; test: Growth inhibition of bacteria in microtiter plates (absorbance); format: cell-based; conditions: peptide 300 μM, 24 h, relative to control
Method: The antimicrobial activity of synthetic peptides was tested against the yeasts Cryptococcus neoformans VKM Y-2755 and Candida albicans VKM Y-2994, as well as against the bacteria Pectobacterium carotovorum subsp. carotovorum VKM B-1247, Pseudomonas savastanoi pv. savastanoi VKM B-1546 and Clavibacter michiganensis subsp. michiganensis VKM Ac-1403. All cultures were obtained from the All-Russian Collection of Microorganisms (VKM). Yeasts were grown on YPD-P medium containing (g/L): glucose–10, peptone–5 and yeast extract–4. […] The optical density of the cultures was measured on a UNICO 1201 (Unico, Dayton, NJ, USA) spectrophotometer at 594 nm. […] 10 µL of the tested peptide solution (final concentrations of 10–300 µM) in water, 80 µL of the medium and 10 µL of the microbial suspension were mixed in a well of the microtiter plate and incubated at 30 °C for 24 h; after that, the absorbance of the suspension was measured on an Efos 9305 spectrophotometer (Sapphire, Moscow, Russia) at 594 nm. […]
as §4, with “6.1 software (StatSoft Inc., Tulsa, OK, USA).” left out

[6] = tested on: Botrytis cinerea VKM F-4549; format: cell-based; conditions: for Inhibition of B. cinerea growth: peptide 300 μM, relative to control; for B. cinerea growth dynamics in the presence of peptide: peptide 60 μM, absorbance after 14-62 h, control H2O
Method: as §1, §2, §3, §4

[7] = tested on: Bipolaris sorokiniana VKM F-4006; test: Spore germination and fungal growth inhibition (absorbance); format: cell-based; conditions: for Inhibition of B. sorokiniana growth: peptide 300 μM, relative to control
Method: as §1, §2, §3, §4

Fusarium species = test: Spore germination and fungal growth inhibition, statement for all tested Fusarium species; format: cell-based; conditions: peptide 300 μM, relative to control
Method: as §1
as §2, with “h. […]” for “h.”
as §4, with “6.1 software (StatSoft Inc., Tulsa, OK, USA).” left out

Molecule | IC50 [1] | IC50 (F. oxysporum VKM F-137) | IC50 [3] | IC50 [4] | Inhibition of B. cinerea growth [6] | Suppression of Fusarium species (Fusarium species) | other results
CC(C)C[C@H](NC(=O)[C@H](CC(N)=O)NC(=O)[C@H](CCC(N)=O)NC(=O)[C@H](CCCNC(=N)N)NC(=O)[C@H](CO)NC(=O)[C@H](CO)NC(=O)[C@H](CCCCN)NC(=O)[C@H](CO)NC(=O)[C@H](CS)NC(=O)[C@H](CCCNC(=N)N)NC(=O)[C@@H](NC(=O)[C@H](CCCCN)NC(=O)[C@H](CS)NC(=O)[C@H](CO)NC(=O)CN)[C@@H](C)O)C(=O)N[C@@H](CS)C(=O)N[C@@H](CC(N)=O)C(=O)N[C@@H](CCCNC(=N)N)C(=O)O [γ47-64SlSN10] (H-GSCKTRCSKSSRQNLCNR-OH) | 127 ± 8.5 µM | 43.8 ± 6.8 µM |  |  |  |  | 
CC(C)C[C@H](NC(=O)[C@H](CCCNC(=N)N)NC(=O)[C@H](CS)NC(=O)[C@H](CCCNC(=N)N)NC(=O)[C@H](C)NC(=O)[C@H](C)NC(=O)[C@H](CS)NC(=O)[C@H](C)NC(=O)CN)C(=O)N[C@@H](CO)C(=O)N[C@@H](CO)C(=O)N[C@@H](CCCNC(=N)N)C(=O)N1CCC[C@H]1C(=O)N[C@@H](CCCNC(=N)N)C(=O)N[C@@H](CC(C)C)C(=O)N[C@@H](CS)C(=O)N[C@@H](Cc1c[nH]cn1)C(=O)N[C@@H](CCCNC(=N)N)C(=O)O [γ48-65SlSN2] (H-GACAARCRLSSRPRLCHR-OH) | 42.1 ± 6.5 µM | 57.1 ± 11.6 µM | 4.2 ± 0.6 µM | 23.1 ± 2.7 µM |  |  | IC50 [2]: 152 ± 7.7 µM; Inhibition of F. culmorum growth ([1]; peptide 75 μM): 79%; IC50 (F. solani VKM F-142): 47.5 ± 2 µM; Maximum inhibition of F. solani (F. solani VKM F-142; peptide 150 μM, 38 h): 69%
C[C@@H](O)[C@H](NC(=O)[C@H](CS)NC(=O)[C@H](Cc1ccccc1)NC(=O)[C@H](CS)NC(=O)[C@H](CCCNC(=N)N)NC(=O)[C@H](CCCNC(=N)N)NC(=O)[C@H](CCCNC(=N)N)NC(=O)[C@H](Cc1ccccc1)NC(=O)CNC(=O)[C@H](CCCNC(=N)N)NC(=O)[C@H](CS)NC(=O)[C@H](CC(=O)O)NC(=O)CNC(=O)CNC(=O)[C@H](CO)NC(=O)[C@@H](N)Cc1ccccc1)C(=O)N[C@@H](CCCNC(=N)N)C(=O)O [γ58-74SlDEFL2] (H-FSGGDCRGFRRRCFCTR-OH) | 44.8 ± 4 µM |  | 11.5 ± 2.5 µM | 19.8 ± 2.5 µM | 31–45% |  | Inhibition of C. neoformans growth [3]: 90%; Inhibition of P. carotovorum growth [5]: 48%
C[C@@H](O)[C@H](NC(=O)[C@H](CS)NC(=O)[C@H](Cc1ccccc1)NC(=O)[C@H](CS)NC(=O)[C@H](CCCNC(=N)N)NC(=O)[C@H](CCCNC(=N)N)NC(=O)[C@H](CCCNC(=N)N)NC(=O)[C@H](Cc1ccccc1)NC(=O)CNC(=O)[C@H](CCCNC(=N)N)NC(=O)[C@H](CS)NC(=O)[C@H](CC(N)=O)NC(=O)CNC(=O)CNC(=O)[C@@H](NC(=O)[C@@H](N)Cc1ccccc1)[C@@H](C)O)C(=O)N[C@@H](CCCNC(=N)N)C(=O)O [γ58-74SlDEFL4] (H-FTGGNCRGFRRRCFCTR-OH) | 42.3 ± 5.7 µM | 125 ± 3.7 µM | 8.1 ± 2.4 µM | 21.5 ± 5.1 µM | 31–45% |  | 
CC[C@H](C)[C@H](NC(=O)[C@H](CCC(=O)O)NC(=O)[C@@H]1CCCN1C(=O)[C@H](CS)NC(=O)[C@H](CS)NC(=O)CNC(=O)[C@@H](N)CCCCN)C(=O)N[C@@H](C)C(=O)NCC(=O)N[C@@H](CC(C)C)C(=O)N[C@@H](CC(C)C)C(=O)N[C@@H](CC(=O)O)C(=O)N[C@@H](CO)C(=O)N[C@@H](CC(N)=O)C(=O)N1CCC[C@H]1C(=O)N[C@H](C(=O)N[C@@H](CS)C(=O)O)[C@@H](C)CC [γ70-86SlLTPg2.8] (H-KGCCPEIAGLLDSNPIC-OH; N-terminus and C-terminus assumed) |  |  |  |  |  |  | B. cinerea growth dynamics in the presence of peptide [6]: insensitive
CC(C)C[C@H](NC(=O)CN)C(=O)N[C@@H](CS)C(=O)N[C@@H](CCCCN)C(=O)N[C@@H](Cc1ccc(O)cc1)C(=O)N[C@@H](CCCNC(=N)N)C(=O)N[C@@H](CS)C(=O)N[C@@H](CO)C(=O)N[C@@H](CC(C)C)C(=O)N[C@@H](Cc1c[nH]cn1)C(=O)N[C@@H](CO)C(=O)N[C@@H](CCCNC(=N)N)C(=O)N1CCC[C@H]1C(=O)N[C@@H](CC(N)=O)C(=O)N[C@H](C(=O)N[C@@H](CS)C(=O)N[C@@H](Cc1ccccc1)C(=O)N[C@@H](CCCNC(=N)N)C(=O)O)C(C)C [γ89-106SlSN9] (H-GLCKYRCSLHSRPNVCFR-OH) | 42.4 ± 3.5 µM |  | 5.1 ± 1.2 µM | 24 ± 2.4 µM |  |  | IC50 [2]: 99.8 ± 10 µM; Maximum inhibition of F. verticillioides ([2]; peptide 180 μM, 38 h): 62%; Inhibition of F. culmorum growth ([1]; peptide 50 μM): 72%; IC50 (F. solani VKM F-142): 139 ± 6.1 µM
C[C@@H](O)[C@H](NC(=O)[C@H](CCCCN)NC(=O)[C@@H]1CCCN1C(=O)[C@@H](NC(=O)[C@H](Cc1ccccc1)NC(=O)[C@H](CO)NC(=O)[C@H](CS)NC(=O)[C@H](Cc1ccc(O)cc1)NC(=O)CNC(=O)[C@H](Cc1ccccc1)NC(=O)[C@@H]1CCCN1C(=O)[C@@H](N)CCCNC(=N)N)[C@@H](C)O)C(=O)N[C@@H](CS)C(=O)O [γ92-104SlMEG2] (H-RPFGYCSFTPKTC-OH; N-terminus and C-terminus assumed) |  |  |  |  | 36–40% | insensitive | Inhibition of C. neoformans growth [3]: with high efficiency; B. sorokiniana growth dynamics in the presence of peptide ([7]; peptide 60 μM, effect observed after 38 h of spore incubation, control H2O): significant growth suppression; Inhibition of C. michiganensis growth ([4]; peptide 300 μM, 24 h, relative to control): with high efficiency; B. cinerea growth dynamics in the presence of peptide [6]: insensitive
SGCCTQLGTVVKNNPEC [γ56-72SlLTPg2.4, synthetic 17-residue peptide corresponding to the γ-core region of tomato nsLTP SlLTPg2.4] |  |  |  |  | inactive | inactive | Inhibition of B. sorokiniana growth [7]: inactive
SGCCTQLSTVVDEKSEC [γ53-69SlLTPg2.5, synthetic 17-residue peptide corresponding to the γ-core region of tomato nsLTP SlLTPg2.5] |  |  |  |  | inactive | inactive | Inhibition of B. sorokiniana growth [7]: inactive
